Results as given in patent publication US9889225B2 (KAOHSIUNG MEDICAL UNIVERSITY, priority 2010, dated 2018).

What was measured:
rat femur bone defect [1] = details: 6 weeks after implantation
Procedure: (§1) For anesthesia, an intraperitoneal injection with a mixture of ketamin hydrochloride (100 mg/ml per 80 mg/kg body weight) and xylazin 2% (12 mg/kg body weight) were used. The left thigh was shaved and a 3 cm lateral longitudinal skin incision was made. The lateral approach was performed posterior to vastus lateralis without damaging the muscle. A bone defect, 0.1 cm×0.4 cm in size, on left femur was created at middle portion of shaft by using a 0.5 mm cone-shape bur. After that, the implant was inserted into the cavity and covered with […] ™ (Johnson & Johnson Medical Limited, Neuchatel, Switzerland) to fix the implant in place. Radiographs were taken to verify the correct position of the bone defect using the great trochanter as control point. At the end of operation, skin wounds were sutured. Six weeks after operation, animals were sacrificed for biomechanical and histological analysis.
Femoral bone specimens were harvested for histological study 6 weeks after implantation. […] The 5-mm thick bone sections were removed and stained with hematoxylin and eosin (H&E; Santa Cruz, Santa Cruz, Calif., USA). A microscope with 10×, 100×, 400× magnification, equipped with a digital CCD camera (Eclipse 50i; Nikon Inc., Mich., USA), were used for images of the sections.

[2] = test system: bone morphogenetic protein-2 (BMP-2); details: 6 weeks after implantation, versus PLGA group
Procedure: as §1
The 5 μm thick sections of femoral bone were incubated in 0.1% EDTA for 10 min at 100 degree for antigen retrieval. Immunohistochemistry (IHC) was performed using the Immuno Cruz Staining System (Santa Cruz). After incubating with 5% BSA/PBS (Sigma, Saint Louis, Mo., USA) blocking solution for 2 h at room temperature, sections were labeled with human-specific anti-BMP2 (dilution 1:50; Abcam) overnight at 4 degree in a humid chamber. […]

rat femur bone defect [3] = test: Rat femur bone defect model, 3-point bending test; details: post-surgery 6 weeks
Procedure: as §1
The present invention employed 3-point bending test to analyze the mechanical property at the end of experiment. Counterlateral femoral bone served as a non-defect femoral bone.
Mechanical property of bone: 3-point bending test: For testing the mechanical property of the repaired femoral defect, the Instron 4466 (model 4465; Instron, Canton, Mass.) was employed for mechanical tests. The rat femur was removed from body and all the connective tissues were stripped off. For 3-point bending, the femur bone was positioned onto two supports, and a single-pronged loading device was applied to the opposite surface at a point precisely in the middle between the two supports. The distance between two supports was 4 cm. Loading force was 1N with speed of 1 mm/min. The experimental procedure involved the measurement of the deflection of the bone at the point of load application and the concurrent measurement of the load, yielding a force-deflection graph. Parameters obtained from this graph include whole-bone stiffness (defined as the slope of the early, linear portion of the load-deflection curve), yield point, maximal load and fracture load. The Young's modulus of the material from the geometry of the loading device and the stiffness of the bone were measured. The data calculations were all based on beam theory and the Hooke's law.

rat femur bone defect [4] = test: Rat femur bone defect model, micro-CT trabecular bone volume; details: 6 weeks after surgery; for trabecular bone volume in the femoral defect site: normalized with total defect length
Procedure: For anesthesia, an intraperitoneal injection with a mixture of ketamin hydrochloride (100 mg/ml per 80 mg/kg body weight) and xylazin 2% (12 mg/kg body weight) were used. The left thigh was shaved and a 3 cm lateral longitudinal skin incision was made. The lateral approach was performed posterior to vastus lateralis without damaging the muscle. A bone defect, 0.1 cm×0.4 cm in size, on left femur was created at middle portion of shaft by using a 0.5 mm cone-shape bur. After that, the implant was inserted into the cavity and covered with […] ™ (Johnson & Johnson Medical Limited, Neuchatel, Switzerland) to fix the implant in place. Radiographs were taken to verify the correct position of the bone defect using the great trochanter as control point. At the end of operation, skin wounds were sutured.
Animals were anesthesia during micro-CT images scanning. Small animal micro-CT (Skyscan 1076, Bruker, Belgium) was employed for analyzing bone repair process in living animals and calculated by image software (CTAn) at the desired time point. The scan conditions were set at an aluminum filter of 0.5mm, 35 μm scanning resolution, x-ray voltage of 50 KV, x-ray current of 200 mA and an exposure time of 600 m-seconds. The area used for analysis began at the defect site close to femoral head and through all the defect area. Total volume indicated the inner area of cortical bone. Trabecular bone volume indicated the total trabecular bone within the total volume. Trabecular bone volume was normalized with total defect length in each rat.

poly(lactic-co-glycolic acid) cross-linked alendronate [PLGA-ALN]
cortical bone thickness and trabecular bone (H&E) versus PLGA group (rat femur bone defect [1]): Thicker cortical bone and more trabecular bone | immunolocalized BMP-2 in the repaired cortical bone and trabecular bone [2]: predominant | Young's modulus (rat femur bone defect [3]; 5 mg implant): 0.43±0.03 GPa | maximal strength (rat femur bone defect [3]; 5 mg implant): 172.5±18.2 N | total energy absorption (rat femur bone defect [3]; 5 mg implant): 106.43±15.36 mm*N | Young's modulus (rat femur bone defect [3]; 10 mg implant): 0.51±0.03 GPa | maximal strength (rat femur bone defect [3]; 10 mg implant): 191.7±11.7 N | total energy absorption (rat femur bone defect [3]; 10 mg implant): 110.71±9.95 mm*N | trabecular bone volume relative to the control or PLGA group (rat femur bone defect [4]; 5 mg implant): 2 times | trabecular bone volume in the femoral defect site (rat femur bone defect [4]; 5 mg implant): 1.413±0.21 | trabecular bone volume relative to the control or PLGA group (rat femur bone defect [4]; 10 mg implant): 2 times | trabecular bone volume in the femoral defect site (rat femur bone defect [4]; 10 mg implant): 1.45±0.35
